Earlier results in article PMC4842970, “Bioactivity Focus of α-Cyano-4-hydroxycinnamic acid (CHCA) Leads to Effective Multifunctional Aldose Reductase Inhibitors” (Scientific Reports, 2016).

System: AR
Parameters: method as in PMID 22316239
Details: read-out: IC50 (AR inhibition); cited from earlier work

For O=C(O)/C=C/c1ccc(O)cc1 [p-coumaric acid], the IC50 is listed as 140 nM.
